# Source: patent US6464991B1, “Oat lipid based surfactants and derivatives and process for preparing same” (Finetex, Inc., priority 1999, dated 2002)
# Tests used:
# [1] = system: Skin Tissue Model; assay: Dermal irritation, Mat-Tek in-vitro Skin Tissue Model (non-animal); assay type: cell-based
# From the text: (§1) These studies were done using non-animal test protocols. Skin Tissue Model and Ocular Tissue Model by Mat-Tek Corporation in-vitro systems were used for dermal and ocular irritation studies.
# [2] = system: Ocular Tissue Model; assay: Ocular irritation, Mat-Tek in-vitro Ocular Tissue Model (non-animal); assay type: cell-based
# From the text: as §1
substance,measurement,setting,value
nonylphenol 10 EO Ethoxylate [Positive Control],Dermal Tox Irritation Ratings/Classifications,[1],Moderate to mild range
same,Ocular Tox Irritation Ratings/Classifications,[2],Moderate to mild range
